The text below walks through data of US10428051B2 (priority 2015, dated 2019).

Chain of human σ1 receptor (Q99720 whole entry): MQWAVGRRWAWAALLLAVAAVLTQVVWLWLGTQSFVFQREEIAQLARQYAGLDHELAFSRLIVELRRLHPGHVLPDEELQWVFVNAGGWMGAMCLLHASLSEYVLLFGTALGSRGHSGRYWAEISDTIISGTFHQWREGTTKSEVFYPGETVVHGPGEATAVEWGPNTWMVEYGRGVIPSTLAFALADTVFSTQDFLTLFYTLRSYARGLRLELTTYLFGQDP

One assay concerns the target human σ1 receptor (Homo sapiens, UniProt Q99720). As to the kind of experiment: biochemical. The format is binding. Details: μ and σ1 dual (binding to the σ1 receptor and the μ-opioid receptor expressed as Ki): key to the marks not given beside the values.
Details: not given
Take `CCC(=O)N(CC1(N2CCN(Cc3ccccn3)CC2)CCOCC1)c1ccccc1` [Example 102, N-phenyl-N-((4-(4-(pyridin-2-ylmethyl)piperazin-1-yl)tetrahydro-2H-pyran-4-yl)methyl)propionamide]: the Ki (commonly the dissociation constant of the complex between target and ligand, obtained from inhibition or displacement) was greater than 500 nM. In turn, `COCC(=O)N(CC1(N2CCN(Cc3ccccc3)CC2)CCOCC1)c1ccccc1` [Example 37, N-((4-(4-benzylpiperazin-1-yl)tetrahydro-2H-pyran-4-yl)methyl)-2-methoxy-N-phenylacetamide] showed a Ki of less than 500 nM. Same read-out and setting: with `CCC(=O)N(CC1(N2CCN(Cc3cccnc3)CC2)CCOCC1)c1ccccc1` [Example 101, N-phenyl-N-((4-(4-(pyridin-3-ylmethyl)piperazin-1-yl)tetrahydro-2H-pyran-4-yl)methyl)propionamide] the figure was less than 500 nM. For `CCC(=O)N(CC1(N2CCN(Cc3ccccc3)CC2)CC1)c1ccc(C(F)(F)F)cn1` [Example 94, N-((1-(4-benzylpiperazin-1-yl)cyclopropyl)methyl)-N-(5-(trifluoromethyl)pyridin-2-yl)propionamide], the “μ and σ1 dual (binding to the σ1 receptor and the μ-opioid receptor expressed as Ki)” value (“μ and σ1 dual” below) was “++”.

The compound `CCC(=O)N(CC1(N2CCN(Cc3ccccc3)CC2)CC1)c1ccc(F)cn1` [Example 33, N-((1-(4-benzylpiperazin-1-yl)cyclopropyl)methyl)-N-(5-fluoropyridin-2-yl)propionamide] returned a Ki of less than 500 nM. For `CCC(=O)N(CC1(N2CCN(Cc3ccccn3)CC2)CC1)c1ccccc1` [Example 114, N-phenyl-N-((1-(4-(pyridin-2-ylmethyl)piperazin-1-yl)cyclopropyl)methyl)propionamide], the Ki is less than 500 nM.

Consider `CCC(=O)N(CC1(N2CCN(Cc3cncc(F)c3)CC2)CCOCC1)c1ccccc1` [Example 107, N-((4-(4-((5-fluoropyridin-3-yl)methyl)piperazin-1-yl)tetrahydro-2H-pyran-4-yl)methyl)-N-phenylpropionamide], for which the Ki is less than 500 nM. The same measure, in the same setting: with `CCC(=O)N(CC1(N2CCN(Cc3ccccc3)CC2)CCC1)c1cccc(C(F)(F)F)n1` [Example 197, N-((1-(4-benzylpiperazin-1-yl)cyclobutyl)methyl)-N-(6-(trifluoromethyl)pyridin-2-yl)propionamide] the figure was less than 100 nM.

With `CCC(=O)N(CC1(N2CCN(Cc3ccccc3)CC2)CCOCC1)C(C)c1ccccc1` (stereo not drawn) [Example 13, N-((4-(4-benzylpiperazin-1-yl)tetrahydro-2H-pyran-4-yl)methyl)-N-(1-phenylethyl)propionamide], the Ki was less than 100 nM. For the compound `CCC(=O)N(CC1(N2CCN(CC(C)C)CC2)CCOC(C)(C)C1)c1ncccc1F` (stereo not drawn) [Example 170, N-(3-fluoropyridin-2-yl)-N-((4-(4-isobutylpiperazin-1-yl)-2,2-dimethyltetrahydro-2H-pyran-4-yl)methyl)propionamide], the “μ and σ1 dual” value is on record as “++”. Regarding `CCC(=O)N(CC1(N2CCN(CC(C)C)CC2)CCOCC1)c1ncccc1C#N` [Example 62, N-(3-cyanopyridin-2-yl)-N-((4-(4-isobutylpiperazin-1-yl)tetrahydro-2H-pyran-4-yl)methyl)propionamide], the “μ and σ1 dual” value was “++”.

`CCC(=O)N(CC1(N2CCN(CCC(C)C)CC2)CCOC(C)(C)C1)c1cccc(C#N)n1` (stereo not drawn) [Example 88, N-(6-cyanopyridin-2-yl)-N-((4-(4-isopentylpiperazin-1-yl)-2,2-dimethyltetrahydro-2H-pyran-4-yl)methyl)propionamide]: the “μ and σ1 dual” value is on record as “++”. In turn, `CCC(=O)N(CC1(N2CCN(CCOC(C)C)CC2)CCOC(C)(C)C1)c1ccccn1` (stereo not drawn) [Example 163, N-((4-(4-(2-isopropoxyethyl)piperazin-1-yl)-2,2-dimethyltetrahydro-2H-pyran-4-yl)methyl)-N-(pyridin-2-yl)propionamide] showed an inhibitory constant (Ki) greater than 500 nM. As to `CCC(=O)N(CC1(N2CCN(CCC(C)C)CC2)CCOCC1)c1ccccn1` [Example 153, N-((4-(4-isopentylpiperazin-1-yl)tetrahydro-2H-pyran-4-yl)methyl)-N-(pyridin-2-yl)propionamide], the “μ and σ1 dual” value is “++”. As to `CCC(=O)N(CC1(N2CCN(Cc3ccccc3F)CC2)CC1)c1ccccc1` [Example 118, N-((1-(4-(2-fluorobenzyl)piperazin-1-yl)cyclopropyl)methyl)-N-phenylpropionamide], the Ki was less than 100 nM. For the compound `CCC(=O)N(CC1(N2CCN(CCc3cccnc3)CC2)CCOCC1)c1cccc(C(F)(F)F)n1` [Example 201, N-((4-(4-(2-(pyridin-3-yl)ethyl)piperazin-1-yl)tetrahydro-2H-pyran-4-yl)methyl)-N-(6-(trifluoromethyl)pyridin-2-yl)propionamide], the “μ and σ1 dual” value is recorded as “++”.

`CCC(=O)N(CC1(N2CCN(Cc3cccc(F)c3)CC2)CC1)c1ccccc1` [Example 116, N-((1-(4-(3-fluorobenzyl)piperazin-1-yl)cyclopropyl)methyl)-N-phenylpropionamide]: the Ki is less than 100 nM.

`CCC(=O)N(CC1(N2CCN(C(C)CC)CC2)CCOCC1)c1cccc(C(F)(F)F)n1` (stereo not drawn) [Example 139, N-((4-(4-sec-butylpiperazin-1-yl)tetrahydro-2H-pyran-4-yl)methyl)-N-(6-(trifluoromethyl)pyridin-2-yl)propionamide]: the “μ and σ1 dual” value is recorded as “++”. `CCC(=O)N(CC1(N2CCN(Cc3ccccc3)CC2)CCOC(C)(C)C1)c1ncccc1F` (stereo not drawn) [Example 64, N-((4-(4-benzylpiperazin-1-yl)-2,2-dimethyltetrahydro-2H-pyran-4-yl)methyl)-N-(3-fluoropyridin-2-yl)propionamide] had a Ki of less than 500 nM. As for `CCOCCN1CCN(C2(CN(C(=O)CC)c3cccc(C(F)(F)F)n3)CCOC3(CCCC3)C2)CC1` (stereo not drawn) [Example 176, N-((9-(4-(2-ethoxyethyl)piperazin-1-yl)-6-oxaspiro[4.5]decan-9-yl)methyl)-N-(6-(trifluoromethyl)pyridin-2-yl)propionamide], the Ki was less than 500 nM. As to `CCC(=O)N(CC1(N2CCN(Cc3ccccc3)CC2)CC1)c1ccncc1` [Example 31, N-((1-(4-benzylpiperazin-1-yl)cyclopropyl)methyl)-N-(pyridin-4-yl)propionamide], the “μ and σ1 dual” value was “++”. On to `CCC(=O)N(CC1(N2CCN(CCOC(C)C)CC2)CCOCC1)c1ccccn1` [Example 152, N-((4-(4-(2-isopropoxyethyl)piperazin-1-yl)tetrahydro-2H-pyran-4-yl)methyl)-N-(pyridin-2-yl)propionamide], for which the inhibitory constant (Ki) is greater than 500 nM.

Compound `CCC(=O)N(CC1(N2CCN(Cc3ccccc3)CC2)CC1)c1cccc(C#N)n1` [Example 97, N-((1-(4-benzylpiperazin-1-yl)cyclopropyl)methyl)-N-(6-cyanopyridin-2-yl)propionamide] displayed a Ki of less than 500 nM.

As for `CCOCCN1CCN(C2(CN(C(=O)CC)c3ccccn3)CCOC(C)(C)C2)CC1` (stereo not drawn) [Example 165, N-((4-(4-(2-ethoxyethyl)piperazin-1-yl)-2,2-dimethyltetrahydro-2H-pyran-4-yl)methyl)-N-(pyridin-2-yl)propionamide], the inhibitory constant (Ki) was greater than 500 nM.

For the compound `CCC(=O)N(CC1(N2CCN(C(C)CC)CC2)CCOC(C)(C)C1)c1cccc(C(F)(F)F)n1` (stereo not drawn) [Example 162, N-((4-(4-sec-butylpiperazin-1-yl)-2,2-dimethyltetrahydro-2H-pyran-4-yl)methyl)-N-(6-(trifluoromethyl)pyridin-2-yl)propionamide], the Ki was greater than 500 nM.

In the case of `CCC(=O)N(CC(C)(C)N1CCN(CCc2ncccc2F)CC1)c1ccccc1` [Example 72, N-(2-(4-(2-(3-fluoropyridin-2-yl)ethyl)piperazin-1-yl)-2-methylpropyl)-N-phenylpropionamide], the “μ and σ1 dual” value was “++”. Compound `CCC(=O)N(CC1(N2CCN(Cc3ccccc3)CC2)CCOCC1)c1ccccc1F` [Example 4, N-((4-(4-benzylpiperazin-1-yl)tetrahydro-2H-pyran-4-yl)methyl)-N-(2-fluorophenyl)propionamide] returned a Ki of less than 100 nM. `CCC(=O)N(CC1(N2CCN(CCN3CCOCC3)CC2)CCOCC1)c1cccc(C(F)(F)F)n1` [Example 184, N-((4-(4-(2-morpholinoethyl)piperazin-1-yl)tetrahydro-2H-pyran-4-yl)methyl)-N-(6-(trifluoromethyl)pyridin-2-yl)propionamide] registered a Ki greater than 500 nM. On the same count and under the same terms, the same measure for `CCC(=O)N(CC1(N2CCN(CCOC(C)C)CC2)CC1)c1cccc(C(F)(F)F)n1` [Example 179, N-((1-(4-(2-isopropoxyethyl)piperazin-1-yl)cyclopropyl)methyl)-N-(6-(trifluoromethyl)pyridin-2-yl)propionamide]: less than 500 nM; for `CCC(=O)N(CC1(N2CCN(CCC(C)C)CC2)CCOC2(CCCC2)C1)c1cccc(C(F)(F)F)n1` (stereo not drawn) [Example 173, N-((9-(4-isopentylpiperazin-1-yl)-6-oxaspiro[4.5]decan-9-yl)methyl)-N-(6-(trifluoromethyl)pyridin-2-yl)propionamide]: less than 500 nM. The same measure, in the same setting: the same measure for `CCC(=O)N(CC1(N2CCN(Cc3ccccc3)CC2)CCOCC1)c1cccc(C#N)n1` [Example 84, N-((4-(4-benzylpiperazin-1-yl)tetrahydro-2H-pyran-4-yl)methyl)-N-(6-cyanopyridin-2-yl)propionamide]: less than 500 nM. Take `CCC(=O)N(CC1(N2CCN(CCOCC(C)(C)O)CC2)CCOCC1)c1cccc(C(F)(F)F)n1` [Example 186, N-((4-(4-(2-(2-hydroxy-2-methylpropoxy)ethyl)piperazin-1-yl)tetrahydro-2H-pyran-4-yl)methyl)-N-(6-(trifluoromethyl)pyridin-2-yl)propionamide]: the “μ and σ1 dual” value is “++”.

Staying with this assay, now noted: combined class for both Ki-σ1 (assay A1) and Ki-μ (assay A2); human receptors, radioligand binding; read-out: μ and σ1 dual (binding to the σ1 receptor and the μ-opioid receptor expressed as Ki).
On to `CN1CCC(CN(C(=O)c2nccs2)c2ccccc2)(N2CCN(Cc3ccccc3)CC2)CC1` [Example 41, N-((4-(4-benzylpiperazin-1-yl)-1-methylpiperidin-4-yl)methyl)-N-phenylthiazole-2-carboxamide], for which the Ki is greater than 500 nM.
